Values joined by “and” are separate entries in the source; they are usually repeats but may differ in a detail not shown here. Identical values can stand only once.
COC(F)(F)F [trifluoromethoxymethane]
Conditions | mass density [kg/m3]
240 K, 17 kPa, Gas | 0.84
240 K, 25.1 kPa, Gas | 1.25
240 K, 36.9 kPa, Gas | 1.87
240 K, 517.1 kPa, Liquid | 1262.64
240 K, 1011 kPa, Liquid | 1263.83
240 K, 1516.2 kPa, Liquid | 1265.03
240 K, 2014.7 kPa, Liquid | 1266.21
240 K, 2517.3 kPa, Liquid | 1267.38
240 K, 3024.1 kPa, Liquid | 1268.56
240 K, 3529.6 kPa, Liquid | 1269.72
240 K, 4031 kPa, Liquid | 1270.86
240 K, 4515.5 kPa, Liquid | 1271.95
240 K, 5038.9 kPa, Liquid | 1273.12
240 K, 5511.8 kPa, Liquid | 1274.16
240 K, 6024.7 kPa, Liquid | 1275.29
240 K, 6511.7 kPa, Liquid | 1276.35
240 K, 6981.1 kPa, Liquid | 1277.36
250 K, 19.2 kPa, Gas | 0.91
250 K, 28.3 kPa, Gas | 1.34
250 K, 41.7 kPa, Gas | 1.98
250 K, 61.2 kPa, Gas | 2.94
250 K, 89.4 kPa, Gas | 4.33
250 K, 505.1 kPa, Liquid | 1236.18
250 K, 1008.8 kPa, Liquid | 1237.55
250 K, 1508.8 kPa, Liquid | 1238.91
250 K, 2020.1 kPa, Liquid | 1240.28
250 K, 2517.2 kPa, Liquid | 1241.59
250 K, 3037 kPa, Liquid | 1242.95
250 K, 3530.8 kPa, Liquid | 1244.22
250 K, 4030.5 kPa, Liquid | 1245.49
250 K, 4537.2 kPa, Liquid | 1246.78
250 K, 5042.6 kPa, Liquid | 1248.05
250 K, 5550.6 kPa, Liquid | 1249.31
250 K, 6026.5 kPa, Liquid | 1250.48
250 K, 6529.6 kPa, Liquid | 1251.71
250 K, 6975.1 kPa, Liquid | 1252.79
260 K, 18.7 kPa, Gas | 1.11
260 K, 27.6 kPa, Gas | 1.53
260 K, 40.7 kPa, Gas | 2.15
260 K, 59.9 kPa, Gas | 3.03
260 K, 87.8 kPa, Gas | 4.4
260 K, 127.7 kPa, Gas | 6.4
260 K, 507.8 kPa, Liquid | 1209.12
260 K, 1009.3 kPa, Liquid | 1210.7
260 K, 1499.4 kPa, Liquid | 1212.21
260 K, 2004.5 kPa, Liquid | 1213.76
260 K, 2515.8 kPa, Liquid | 1215.3
260 K, 3012.1 kPa, Liquid | 1216.77
260 K, 3527.2 kPa, Liquid | 1218.29
260 K, 4018 kPa, Liquid | 1219.71
260 K, 4522 kPa, Liquid | 1221.16
260 K, 5039.1 kPa, Liquid | 1222.63
260 K, 5512.3 kPa, Liquid | 1223.96
260 K, 6040.8 kPa, Liquid | 1225.42
260 K, 6546.9 kPa, Liquid | 1226.81
260 K, 6987.4 kPa, Liquid | 1227.99
270 K, 23.7 kPa, Gas | 1.1
270 K, 35 kPa, Gas | 1.6
270 K, 51.5 kPa, Gas | 2.35
270 K, 75.7 kPa, Gas | 3.49
270 K, 110.6 kPa, Gas | 5.15
270 K, 160.6 kPa, Gas | 7.63
270 K, 500.8 kPa, Liquid | 1180.45
270 K, 1001.8 kPa, Liquid | 1182.27
270 K, 1515.4 kPa, Liquid | 1184.1
270 K, 1999.2 kPa, Liquid | 1185.81
270 K, 2500.7 kPa, Liquid | 1187.53
270 K, 3017 kPa, Liquid | 1189.29
270 K, 3484.3 kPa, Liquid | 1190.86
270 K, 4038.2 kPa, Liquid | 1192.68
270 K, 4513.3 kPa, Liquid | 1194.24
270 K, 5047.2 kPa, Liquid | 1195.96
270 K, 5542.1 kPa, Liquid | 1197.53
270 K, 6036.1 kPa, Liquid | 1199.08
270 K, 6529.6 kPa, Liquid | 1200.61
270 K, 6973.6 kPa, Liquid | 1201.96
280 K, 27.5 kPa, Gas | 1.21
280 K, 40.5 kPa, Gas | 1.79
280 K, 59.6 kPa, Gas | 2.61
280 K, 87.6 kPa, Gas | 3.89
280 K, 128.3 kPa, Gas | 5.75
280 K, 186.4 kPa, Gas | 8.53
280 K, 269 kPa, Gas | 12.52
280 K, 454.4 kPa, Liquid | 1150.61
280 K, 985.2 kPa, Liquid | 1152.87
280 K, 1507.7 kPa, Liquid | 1155.03
280 K, 1992.9 kPa, Liquid | 1157.02
280 K, 2510.8 kPa, Liquid | 1159.1
280 K, 3011.5 kPa, Liquid | 1161.06
280 K, 3522.2 kPa, Liquid | 1163.04
280 K, 4037.2 kPa, Liquid | 1164.99
280 K, 4483.8 kPa, Liquid | 1166.68
280 K, 4942.1 kPa, Liquid | 1168.36
280 K, 5533.2 kPa, Liquid | 1170.51
280 K, 5977.4 kPa, Liquid | 1172.09
280 K, 6516.6 kPa, Liquid | 1173.99
280 K, 7008.7 kPa, Liquid | 1175.7
290 K, 18.9 kPa, Gas | 0.76
290 K, 30.4 kPa, Gas | 1.28
290 K, 50.3 kPa, Gas | 2.25
290 K, 74.2 kPa, Gas | 3.26
290 K, 109 kPa, Gas | 4.83
290 K, 159.4 kPa, Gas | 7.09
290 K, 232.8 kPa, Gas | 10.52
290 K, 338.9 kPa, Gas | 15.78
290 K, 493.5 kPa, Liquid | 1119.5
290 K, 976.7 kPa, Liquid | 1121.93
290 K, 979.3 kPa, Liquid | 1121.87
290 K, 1475.8 kPa, Liquid | 1124.36
290 K, 1999.9 kPa, Liquid | 1126.86
290 K, 2466.6 kPa, Liquid | 1129.04
290 K, 2989.9 kPa, Liquid | 1131.43
290 K, 3492.2 kPa, Liquid | 1133.73

Liquid
Conditions | mass density
240 K | 1261.55 kg/m3 and 1261.54 kg/m3
250 K | 1235.07 kg/m3
260 K | 1208.02 kg/m3
270 K | 1179.44 kg/m3
280 K | 1150.07 kg/m3
